Source: ChEMBL document CHEMBL1201862, “PubChem BioAssay data set” (2004)
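1) Cells in 96-well plates. 2) Compound, 48 h, 5 concentrations. 3) Linear interpolation between surrounding doses. 4) Unreached endpoint = highest concentration. At the GI50, growth is halved.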 Calls of active or inactive are those of the source. No stated cut-off is given here; in the data, active = GI50 up to about 1.1 µM and inactive = higher.

What was measured:
Assay in all cases: NCI-60 cell line screen, 48 h
T47D = test system: T47D
KM-20L2 = test system: KM-20L2
HOP-18 = test system: HOP-18
RXF 631 = test system: RXF 631
LXFL 529 = test system: LXFL 529
DMS-114 = test system: DMS-114
M19-MEL = test system: M19-MEL
DMS-273 = test system: DMS-273
XF498 = test system: XF498

Question: Which GI50 (T47D) does the source give for CCN1C(=O)c2ccccc2C1(O)c1ccc(Cl)cc1 (configuration not stated) here?
Answer: 17.7 µM (inactive)

Question: Which GI50 (T47D) does the source give for CCn1c(-c2ccc(OC)cc2)nc2c1C(=O)c1ccccc1C2=O here?
Answer: > 100 µM (inactive)

Question: C[C@]1(O)O[C@@H]2OCC[C@@H]2C2=C1C(=O)c1ccccc1C2=O was tested. Which GI50 (T47D) did it give?
Answer: 18.3 µM (inactive)

Question: Which GI50 (T47D) does the source give for CSc1nc(C#N)c(/N=C\N(C)C)n1C here?
Answer: > 100 µM (inactive)

Question: CCOC(=O)c1c2ccc(/C=C/c3ccccc3)ccc-2c(C(=O)OCC)c1N was tested. Which GI50 (KM-20L2) did it give?
Answer: > 100 µM (inactive)

Question: And the GI50 (HOP-18)?
Answer: > 100 µM (inactive)

Question: What about the GI50 (RXF 631) of the same compound?
Answer: > 100 µM (inactive)

Question: What about the GI50 (LXFL 529) of the same compound?
Answer: 78.7 µM (inactive)

Question: And the GI50 (DMS-114)?
Answer: > 100 µM (inactive)

Question: What about the GI50 (M19-MEL) of the same compound?
Answer: > 100 µM (inactive)

Question: And the GI50 (DMS-273)?
Answer: > 100 µM (inactive)

Question: With C=C(Cl)C(Cl)(CBr)CCCC(C)(C)Cl (configuration not stated) as the compound, how does the GI50 (T47D) read?
Answer: 1.8 µM (inactive)

Question: For O=C(NCCCCCCNC(=O)NC1OCC(O)C(O)C1O)NC1OCC(O)C(O)C1O (configuration not stated), which GI50 (LXFL 529) is on record?
Answer: > 100 µM (inactive)

Question: And the GI50 (DMS-114)?
Answer: > 100 µM (inactive)

Question: And the GI50 (M19-MEL)?
Answer: > 100 µM (inactive)

Question: How did the GI50 (KM-20L2) turn out when COc1nc(NC2OC(COC(C)=O)C(OC(C)=O)C(OC(C)=O)C2OC(C)=O)c(/N=C/C=N/c2c(NC3OC(COC(C)=O)C(OC(C)=O)C(OC(C)=O)C3OC(C)=O)nc(OC)[nH]c2=O)c(=O)[nH]1 (configuration not stated) was run?
Answer: > 100 µM (inactive)

Question: And the GI50 (HOP-18)?
Answer: > 100 µM (inactive)

Question: What about the GI50 (LXFL 529) of the same compound?
Answer: > 100 µM (inactive)

Question: And the GI50 (DMS-114)?
Answer: > 100 µM (inactive)

Question: And the GI50 (M19-MEL)?
Answer: > 100 µM (inactive)

Question: Which GI50 (T47D) does the source give for CCN(CC)CCN1CCN=c2c3cc(OC)ccc3n3cnc4ccc1c2c43 here?
Answer: 5.52 µM (inactive)

Question: For Cc1nc2c(nc1C)-c1c(c3c(n1C)C(=O)CCC3)C(=O)C2=O, which GI50 (T47D) is on record?
Answer: 0.0697 µM (active)

Question: With NCCCNCCCCN(CCCN)/[N+]([O-])=N\O as the compound, how does the GI50 (KM-20L2) read?
Answer: > 100 µM (inactive)

Question: What about the GI50 (HOP-18) of the same compound?
Answer: > 100 µM (inactive)

Question: What about the GI50 (RXF 631) of the same compound?
Answer: > 100 µM (inactive)

Question: And the GI50 (LXFL 529)?
Answer: > 100 µM (inactive)

Question: And the GI50 (DMS-114)?
Answer: > 100 µM (inactive)

Question: What about the GI50 (M19-MEL) of the same compound?
Answer: > 100 µM (inactive)

Question: What about the GI50 (DMS-273) of the same compound?
Answer: > 100 µM (inactive)

Question: O=C(/C=C/c1ccc(O)c(O)c1)NC(COC(=O)/C=C/c1ccc(O)c(O)c1)C(=O)O (configuration not stated) was tested. Which GI50 (T47D) did it give?
Answer: > 100 µM (inactive)

Question: How did the GI50 (T47D) turn out when O=c1c2ccccc2nc(-c2ccccc2)n1O was run?
Answer: 45.6 µM (inactive)

Question: How did the GI50 (T47D) turn out when Cn1c2ccccc2c2ccc3c(c21)C(=O)c1ccc2c4ccccc4n(C)c2c1C3=O was run?
Answer: > 100 µM (inactive)

Question: What does the source list for O=C(CC1S/C(=N\c2ccccc2Cl)NC1=O)Nc1ccc(Cl)cc1 (configuration not stated)?
Answer: GI50 (KM-20L2): > 100 µM (inactive); GI50 (LXFL 529): > 100 µM (inactive); GI50 (DMS-114): > 100 µM (inactive); GI50 (M19-MEL): > 100 µM (inactive); GI50 (DMS-273): > 100 µM (inactive)

Question: What does the source list for CC(=O)NNc1nc(C)c(C(=O)NNC(=O)C(=O)Nc2c(Cl)cc([N+](=O)[O-])cc2Cl)s1?
Answer: GI50 (KM-20L2): 31.9 µM (inactive); GI50 (LXFL 529): 33.7 µM (inactive); GI50 (DMS-114): 32.6 µM (inactive); GI50 (M19-MEL): 46.6 µM (inactive); GI50 (DMS-273): 32.6 µM (inactive)

Question: For CC1(C)CCC(=O)NC1CC(=O)CC1NC(=O)CCC1(C)C (configuration not stated), which GI50 (T47D) is on record?
Answer: > 100 µM (inactive)

Question: Which GI50 (T47D) does the source give for CC(=O)OCC1=C(C)C(OC(=O)C(OC(C)=O)[C@@H](NC(=O)c2ccccc2)c2ccccc2)CCC1(C)C (some centres not stated) here?
Answer: > 100 µM (inactive)

Question: Which GI50 (T47D) does the source give for N#CCCN(CCC#N)c1ccc(C(/N=N/c2ccccc2)=N\c2ccccc2)cc1 here?
Answer: > 100 µM (inactive)

Question: With O=C(O)Cc1cccnc1 as the compound, how does the GI50 (T47D) read?
Answer: > 100 µM (inactive)

Question: O=C1C[C@@H]2[C@@H](C=CC23CC3)N1O was tested. Which GI50 (KM-20L2) did it give?
Answer: > 100 µM (inactive)

Question: And the GI50 (HOP-18)?
Answer: > 100 µM (inactive)

Question: And the GI50 (LXFL 529)?
Answer: > 100 µM (inactive)

Question: What about the GI50 (M19-MEL) of the same compound?
Answer: > 100 µM (inactive)

Question: What about the GI50 (DMS-273) of the same compound?
Answer: > 100 µM (inactive)

Question: O=C(CC(=O)C(=O)Nc1ccccc1)CC(c1ccccc1)c1c(O)c2ccccc2oc1=O (configuration not stated) was tested. Which GI50 (KM-20L2) did it give?
Answer: > 100 µM (inactive)

Question: And the GI50 (HOP-18)?
Answer: > 100 µM (inactive)

Question: And the GI50 (RXF 631)?
Answer: > 100 µM (inactive)

Question: And the GI50 (DMS-114)?
Answer: > 100 µM (inactive)

Question: What about the GI50 (M19-MEL) of the same compound?
Answer: > 100 µM (inactive)

Question: What about the GI50 (DMS-273) of the same compound?
Answer: > 100 µM (inactive)

Question: With COCCOCCOC1=CC(=O)c2c(O)ccc(O)c2C1=O as the compound, how does the GI50 (T47D) read?
Answer: 1.82 µM (inactive)

Question: For C[N+](C)(C)CC1CCC/C1=N/O (configuration not stated), which GI50 (KM-20L2) is on record?
Answer: 17.8 µM (inactive)

Question: And the GI50 (HOP-18)?
Answer: > 100 µM (inactive)

Question: And the GI50 (XF498)?
Answer: 1.68 µM (inactive)

Question: What about the GI50 (LXFL 529) of the same compound?
Answer: 54.5 µM (inactive)

Question: What about the GI50 (DMS-114) of the same compound?
Answer: 20 µM (inactive)

Question: What about the GI50 (M19-MEL) of the same compound?
Answer: 41 µM (inactive)

Question: What about the GI50 (DMS-273) of the same compound?
Answer: 60.7 µM (inactive)

Question: CN1CCN(c2ccc([N+](=O)[O-])c3no[n+]([O-])c23)CC1 was tested. Which GI50 (T47D) did it give?
Answer: 0.0661 µM (active)

Question: How did the GI50 (T47D) turn out when N#CC1=C(N)N(c2ccccc2)C(c2ccccc2)C1(C#N)C#N (configuration not stated) was run?
Answer: 10.4 µM (inactive)

Question: For CC1C(O)Oc2cc3c(cc2C1c1ccccc1O)OCO3 (configuration not stated), which GI50 (T47D) is on record?
Answer: 30.4 µM (inactive)

Question: How did the GI50 (HOP-18) turn out when CCN1c2ccccc2C(C(SC)S(=O)(=O)c2ccc(C)cc2)c2c1[nH]c(=O)n(C)c2=O (configuration not stated) was run?
Answer: 22.9 µM (inactive)

Question: What about the GI50 (XF498) of the same compound?
Answer: > 100 µM (inactive)

Question: What about the GI50 (LXFL 529) of the same compound?
Answer: > 100 µM (inactive)

Question: And the GI50 (DMS-114)?
Answer: > 100 µM (inactive)

Question: And the GI50 (M19-MEL)?
Answer: > 100 µM (inactive)

Question: And the GI50 (DMS-273)?
Answer: > 100 µM (inactive)

Question: How did the GI50 (T47D) turn out when COc1ccc(C2c3cc4c(cc3OC(N3CCOCC3)C2C)OCO4)c(OC)c1 (configuration not stated) was run?
Answer: 5.83 µM (inactive)

Question: Cc1cc(=O)oc2c(CNC(C(=O)O)C(C)O)c(O)ccc12 (configuration not stated) was tested. Which GI50 (T47D) did it give?
Answer: > 100 µM (inactive)

Question: COP(=O)(OC)[C@@](O)(c1ccccc1)[C@@H](O)[C@H](O)c1ccccc1 was tested. Which GI50 (T47D) did it give?
Answer: > 100 µM (inactive)

Question: How did the GI50 (T47D) turn out when CC1(C)CC2C=C(C=O)C3(C=O)CC3(C)C2C1 (configuration not stated) was run?
Answer: 1.33 µM (inactive)

Question: With COc1cc(NCc2ccc3n2-c2ccccc2OC3)cc(OC)c1OC as the compound, how does the GI50 (T47D) read?
Answer: 37.2 µM (inactive)

Question: What does the source list for COC(=O)C1CC(=O)CCC1c1ccccc1 (configuration not stated)?
Answer: GI50 (KM-20L2): > 100 µM (inactive); GI50 (HOP-18): > 100 µM (inactive); GI50 (LXFL 529): > 100 µM (inactive); GI50 (DMS-114): > 100 µM (inactive); GI50 (M19-MEL): > 100 µM (inactive); GI50 (DMS-273): > 100 µM (inactive)
